According to patent publication US20140045824A1, “METHOD FOR PRODUCING COMPLEX CRYSTAL AND METHOD FOR SCREENING COMPLEX CRYSTAL” (priority 2011, published 2014):

How the values were obtained:
Assay type in all cases: physicochemical
[1] = Cocrystal screening by co-grinding method (Comparative Example 2); set-up: key: A cocrystal was completely formed.; B: A mixture of a cocrystal and the host compound or guest compound was formed.; C: A cocrystal was not formed (a mixture of the host compound and the guest compound was formed); details: host theophylline, equimolar guest, mixed/ground in agate mortar
Experimental: 3 mg (0.0167 mmoles) of theophylline and a guest compound shown in Table 1 in an equimolar amount (0.0167 mmoles) to theophylline were weighed and mixed using an agate mortar. At that time, particles having a large size to an extent that they could be distinguished through visual inspection were grinded on the agate mortar. The obtained solids were subjected to powder X-ray diffraction measurement and thermal analysis.

[2] = Cocrystal screening by mixing and grinding method (Comparative Example 5); set-up: key: A cocrystal was completely formed.; B: A mixture of a cocrystal and the host compound or guest compound was formed.; C: A cocrystal was not formed (a mixture of the host compound and the guest compound was formed); details: host carbamazepine, equimolar guest, mixed/ground in agate mortar
Excerpt: Carbamazepine and a guest compound shown in Table 4 in an equimolar amount to carbamazepine were weighed and mixed using an agate mortar. At that time, particles having a large size to an extent that they could be distinguished through visual inspection were grinded on the agate mortar. The obtained solids were subjected to powder X-ray diffraction measurement and thermal analysis.

[3] = Cocrystal screening by heat melting 1-menthol (Example 1), powder X-ray diffraction and thermal analysis; set-up: key to Cocrystal formation, Example 1: A cocrystal was completely formed.; B: A mixture of a cocrystal and the host compound or guest compound was formed.; C: A cocrystal was not formed (a mixture of the host compound and the guest compound was formed); details: host theophylline; for Cocrystal formation, Example 1: equimolar guest, 1-menthol added, 4 hours at 80° C.
Experimental: Theophylline and a guest compound shown in Table 1 in an equimolar amount to theophylline were weighed and mixed using an agate mortar. […] Thereafter, the obtained mixed powder of theophylline, the guest compound, and 1-menthol was heated for 4 hours in an oven at 80° C., and the obtained solid was subjected to powder X-ray diffraction measurement and thermal analysis.

[4] = Cocrystal screening by heat melting 1-menthol (Example 2), powder X-ray diffraction and thermal analysis; set-up: key: A cocrystal was completely formed.; B: A mixture of a cocrystal and the host compound or guest compound was formed.; C: A cocrystal was not formed (a mixture of the host compound and the guest compound was formed); details: host carbamazepine, equimolar guest, 1-menthol added, 10 hours at 80° C.
Experimental: Carbamazepine and a guest compound shown in Table 4 in an equimolar amount to carbamazepine were weighed and mixed using an agate mortar. […] Thereafter, the obtained mixed powder of carbamazepine, the guest compound, and 1-menthol was heated for 10 hours in an oven at 80° C., and the obtained solids were subjected to powder X-ray diffraction measurement and thermal analysis.

[5] = Cocrystal screening by heating method without menthol (Comparative Example 6); set-up: key: A cocrystal was completely formed.; B: A mixture of a cocrystal and the host compound or guest compound was formed.; C: A cocrystal was not formed (a mixture of the host compound and the guest compound was formed); details: host carbamazepine, equimolar guest, no menthol, 4 hours at 80° C.
Experimental: Carbamazepine and a guest compound shown in Table 4 in an equimolar amount to carbamazepine were weighed and mixed using an agate mortar. At that time, particles having a large size to an extent that they could be distinguished through visual inspection were grinded on the agate mortar. 10 mg of this mixed powder was weighed and put into a test tube and heated for 4 hours in an oven at 80° C., and the obtained solids were subjected to powder X-ray diffraction measurement and thermal analysis.

[6] = Cocrystal screening by slurry method (Comparative Examples 4-1 to 4-6), powder X-ray diffraction; set-up: key: A cocrystal was completely formed.; B: A mixture of a cocrystal and the host compound or guest compound was formed.; C: A cocrystal was not formed (a mixture of the host compound and the guest compound was formed); details: host carbamazepine; for Cocrystal formation, Comparative Example 4-6: slurry in acetone; for Cocrystal formation, Comparative Example 4-6 / Cocrystal formation, Comparative Example 4-2 / Cocrystal formation, Comparative Example 4-5 / Cocrystal formation, Comparative Example 4-4 / Cocrystal formation, Comparative Example 4-1 / Cocrystal formation, Comparative Example 4-3: room temperature 7 days; for Cocrystal formation, Comparative Example 4-2: slurry in ethanol; for Cocrystal formation, Comparative Example 4-5: slurry in ethyl acetate; for Cocrystal formation, Comparative Example 4-4: slurry in toluene; for Cocrystal formation, Comparative Example 4-1: slurry in water; for Cocrystal formation, Comparative Example 4*: slurry summary: A if a cocrystal was formed in any one of Comparative Examples 4-1 to 4-6; for Cocrystal formation, Comparative Example 4-3: slurry in tetrahydrofuran
Experimental: 3 mg (0.0127 mmoles) of carbamazepine and a guest compound shown in Table 4 in an equimolar amount (0.0127 mmoles) to carbamazepine were weighed and put into a glass container, to which was then added 60 μL of water. These were shaken at room temperature for 7 days, and the obtained residues were subjected to powder X-ray diffraction measurement. 3 mg (0.0127 mmoles) of carbamazepine and a guest compound shown in Table 4 in an equimolar amount (0.0127 mmoles) to carbamazepine were weighed and put into a glass container, to which was then added 60 μL of ethanol. These were shaken at room temperature for 7 days, and the obtained residues were subjected to powder X-ray diffraction measurement. 3 mg (0.0127 mmoles) of carbamazepine and a guest compound shown in Table 4 in an equimolar amount (0.0127 mmoles) to carbamazepine were weighed and put into a glass container, to which was then added 60 μL of tetrahydrofuran. These were shaken at room temperature for 7 days, and the obtained residues were subjected to powder X-ray diffraction measurement. 3 mg (0.0127 mmoles) of carbamazepine and a guest compound shown in Table 4 in an equimolar amount (0.0127 mmoles) to carbamazepine were weighed and put into a glass container, to which was then added 60 μL of toluene. These were shaken at room temperature for 7 days, and the obtained residues were subjected to powder X-ray diffraction measurement. 3 mg (0.0127 mmoles) of carbamazepine and a guest compound shown in Table 4 in an equimolar amount (0.0127 mmoles) to carbamazepine were weighed and put into a glass container, to which was then added 60 μL of ethyl acetate. These were shaken at room temperature for 7 days, and the obtained residues were subjected to powder X-ray diffraction measurement. 3 mg (0.0127 mmoles) of carbamazepine and a guest compound shown in Table 4 in an equimolar amount (0.0127 mmoles) to carbamazepine were weighed and put into a glass container, to which was then added 60 μL of acetone. These were shaken at room temperature for 7 days, and the obtained residues were subjected to powder X-ray diffraction measurement.

SMILES | Cocrystal formation, Comparative Example 2 [1] | Cocrystal formation, Comparative Example 5 [2] | Cocrystal formation, Example 1 [3] | Cocrystal formation, Example 2 [4] | Cocrystal formation, Comparative Example 6 [5] | Cocrystal formation, Comparative Example 4-6 [6] | Cocrystal formation, Comparative Example 4-2 [6] | Cocrystal formation, Comparative Example 4-5 [6] | Cocrystal formation, Comparative Example 4-4 [6] | Cocrystal formation, Comparative Example 4-1 [6] | Cocrystal formation, Comparative Example 4* [6] | Cocrystal formation, Comparative Example 4-3 [6] | Cocrystal with theophylline found, Example 1 ([3]; 1-menthol, 80° C.)
O=C1NS(=O)(=O)c2ccccc21 [Saccharin] | C | C | A | A | C | B | A | A | A | C | A |  | 
O=C(O)CCCC(=O)O [Glutaric acid] | C | C | A | A | B | C | C | C | C | C | C |  | 
O=C(O)C(=O)O [Oxalic acid] | B | C | B | A | B | C | C | A | B | C | A |  | 
NC(=O)c1ccccc1 [Benzamide] | C | C | A | A | B | C | A | A | A | B | A | A | 
O=C(O)c1ccccc1 [Benzoic acid] | C | C | A | A | B | C | C | C | C | C | C |  | 
N=C(N)NCCC[C@H](N)C(=O)O [L(+)-Arginine] | C | C | C | C | C | C | C | C | C | C | C |  | could not be found out
C/C=C/C=C/C(=O)O [Sorbic acid] | C | C | B | A | B | C | C | C | C | C | C |  | 
O=S(=O)(O)CCS(=O)(=O)O [Ethanedisulfonic acid] | A | C | A | A | B | A | A | A | A | C | A | A | 
NCC(=O)O [Glycine] | C | C | C | C | C | C | C | C | C | C | C |  | 
